The first assay deals with phosphorylated active hERK2 enzyme (Homo sapiens (Human), UniProt P28482).
Chain of phosphorylated active hERK2 enzyme (P28482 whole entry): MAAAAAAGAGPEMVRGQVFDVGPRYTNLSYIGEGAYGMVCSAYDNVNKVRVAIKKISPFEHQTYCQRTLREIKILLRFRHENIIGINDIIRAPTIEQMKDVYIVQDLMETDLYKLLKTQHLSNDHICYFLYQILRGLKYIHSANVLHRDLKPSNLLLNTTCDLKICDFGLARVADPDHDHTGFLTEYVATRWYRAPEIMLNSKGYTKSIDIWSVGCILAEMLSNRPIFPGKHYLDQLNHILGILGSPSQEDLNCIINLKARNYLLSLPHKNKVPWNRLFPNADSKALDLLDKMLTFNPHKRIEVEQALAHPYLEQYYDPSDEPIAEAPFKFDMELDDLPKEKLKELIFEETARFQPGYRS
Conditions: not given
`CCO[C@H]1CCC[C@@H]1NC(=O)Nc1cc2cnn(-c3ccnc(C)c3)c2cn1` (racemic) [Example 147, Racemic 1-[(1S,2S) and (1R,2R)-2-ethoxycyclopentyl]-3-[1-(2-methylpyridin-4-yl)-1H-pyrazolo[3,4-c]pyridin-5-yl]urea]: it took 0.0337 µM to reach half-maximal inhibition (IC50).

Turning to `Cc1cc(-n2ncc3cc(NC(=O)N[C@H]4CCC[C@H]4c4ccc(F)cc4)ncc32)ccn1` (racemic) [Example 153, Racemic cis 1-[(1S,2S) and (1R,2R)-2-(4-fluorophenyl)cyclopentyl]-3-[1-(2-methylpyridin-4-yl)-1H-pyrazolo[3,4-c]pyridin-5-yl]urea], the IC50 – broadly, the concentration needed to halve the response being measured – is 0.0423 µM. In turn, `Cc1cc(-n2ncc3cc(NC(=O)N[C@H]4CN(C)C[C@@H]4c4cccc(F)c4)ncc32)ccn1` [Example 19, 1-[(3R,4S)-4-(3-fluorophenyl)-1-methylpyrrolidin-3-yl]-3-[1-(2-methylpyridin-4-yl)-1H-pyrazolo[3,4-c]pyridin-5-yl)urea] came in with an IC50 of 0.00307 µM. Same read-out and setting: for `Cc1cc(-n2ncc3cc(NC(=O)N[C@H]4CCCC[C@@H]4NC(=O)c4ccccc4)ncc32)ccn1` (racemic) [Example 152, Racemic Trans N-[(1S,2S) and (1R, 2R)-2-({[1-(2-methylpyridin-4-yl)-1H-pyrazolo[3,4-c]pyridin-5-yl]carbamoyl}amino)cyclo-hexy]benzamide] the value was 0.711 µM.

Still in this assay, the particulars now being: read-out: ERK2 IC50; IMAP-FP assay; 0.5 nM hERK2, 30 μM ATP; 10 point titration, 3 μM starting concentration.
As to `Cc1cc(-n2ncc3cc(NC(=O)NCCNCc4ccccc4)ncc32)ccn1` [Example 96, 1-[2-(benzylamino)ethyl]-3-[1-(2-methylpyridin-4-yl)-1H-pyrazolo[3,4-c]pyridin-5-yl]urea], the IC50 was 0.0191 µM. Regarding `CCn1ncc2cc(NC(=O)N[C@H](C)c3ccccc3)nc(OCCO)c21` [Example 258, 1-[1-ethyl-7-(2-hydroxyethoxy)-1H-pyrazolo[3,4-c]pyridin-5-yl]-3-[(1R)-1-phenylethyl]urea], the IC50 was 0.0353 µM.

For the compound `COCCCn1ncc2cc(NC(=O)N[C@H](C)c3ccccc3)nc(CO)c21` [Example 301, 1-[7-(hydroxymethyl)-1-(3-methoxypropyl)-1H-pyrazolo[3,4-c]pyridin-5-yl]-3-[(1R)-1-phenylethyl]urea], the concentration for half-maximal inhibition (IC50) was determined as 0.078 µM.

`Cc1cc(-n2ncc3cc(NC(=O)N[C@H]4CCC[C@H]4Cc4ccccc4)ncc32)ccn1` [Example 160, 1-[(1S,2S)-2-benzylcyclopentyl]-3-[1-(2-methylpyridin-4-yl)-1H-pyrazolo[3,4-c]pyridin-5-yl)urea]: the IC50 came out at 0.0139 µM.

With `C[C@@H](NC(=O)Nc1cc2cnn(CCO)c2c(CO)n1)c1ccccc1` [Example 310, 1-[1-(2-hydroxyethyl)-7-(hydroxymethyl)-1H-pyrazolo[3,4-c]pyridin-5-yl]-3-[(1R)-1-phenylethyl]urea], the IC50 came out at 0.16 µM. On the same count and under the same terms, for `Cc1cc(-n2ncc3cc(NC(=O)NCC(c4ccccc4)N4CCCCC4)ncc32)ccn1` (stereo not shown) [Example 50, 1-[1-(2-methylpyridin-4-yl)-1H-pyrazolo[3,4-c]pyridin-5-yl]-3-(2-phenyl-2-piperidin-1-ylethyl)urea] the value was 0.198 µM; for `Cc1cc(-n2ncc3cc(NC(=O)N[C@H]4CN(C)C[C@@H]4[C@@H]4CCCOC4)ncc32)ccn1` [Example 24, 1-[1-(2-methylpyridin-4-yl)-1H-pyrazolo[3,4-c]pyridin-5-yl]-3-{(3R,4S)-1-methyl-4-[(3S)-tetrahydro-2H-pyran-3-yl]pyrrolidin-3-yl}urea], 0.14 µM; for `C[C@@H](NC(=O)Nc1cc2cnn(CCC#N)c2c(CO)n1)c1ccccc1` [Example 323, 1-[1-(2-Cyanoethyl)-7-(hydroxymethyl)-1H-pyrazolo[3,4-c]pyridin-5-yl]-3-[(R)-1-phenylethyl]urea], 0.111 µM. On the same count and under the same terms, for `Cc1cc(-n2ncc3cc(NC(=O)NCC4CN(C(C)C(F)(F)F)C4)ncc32)ccn1` (stereo not shown) [Example 27, 1-[1-(2-methylpyridin-4-yl)-1H-pyrazolo[3,4-c]pyridin-5-yl]-3-{[1-(2,2,2-trifluoro-1-methylethyl)azetidin-3-yl]methyl}urea] the value was 0.122 µM.

These data come from US9884048B2, “ERK inhibitors” (Merck Sharp & Dohme Corp., priority 2014, dated 2018).
